US10753901B2, “Integrated sensor for the rapid identification of bacteria using ISFETS” (priority 2012, dated 2020)

Assays:
E. coli K12 BW25113 = test: ISFET chip detection of potassium ion efflux after addition of antibacterial agent, positive control; format: cell-based; conditions: in SM buffer, compared to negative control BL21, FIG. 12
Experimental: In this example, the bacteriocin Colicin A9 was combined with E. coli K12 BW25113 as the positive control. As negative controls, Colicin A9 was combined with Staphylococcus aureus 8325, and Colicin A9 was combined with Pseudomonas aeruginosa (PA01). Experiments were performed as described above for Example 1, using the ISFET system 600.
In this example, the Polymyxin B antibiotic (PMB) was combined with E. coli K12 BW25113 in SM buffer as the positive control. As the negative control, Polymyxin B antibiotic (PMB) combined with E. coli K12 BL21 (DE3-Δtail) (referred to as BL21) in SM buffer. Experiments were performed as described above for Example 1, using the ISFET system 600.

[1] = tested on: Staphylococcus aureus 8325; test: ISFET chip detection of potassium ion efflux after addition of lysostaphin, positive control; format: cell-based; conditions: compared to negative controls E. coli K12 BW25113 and P. aeruginosa (PA01), FIG. 11
Description: In this example, the lysostaphin from Staphylococcus simulans was combined with Staphylococcus aureus 8325 as the positive control. As negative controls, lysostaphin from Staphylococcus simulans was combined with E. coli K12 BW25113, and lysostaphin from Staphylococcus simulans was combined with Pseudomonas aeruginosa (PA01).

Substance	ISFET output from efflux of potassium ions (E. coli K12 BW25113)	ISFET output from efflux of potassium ions [1]
Polymyxin B	output increases	–
lysostaphin: lysostaphin from Staphylococcus simulans	–	output increases
